What was measured:
Assay in all cases: KINOMEscan
Type in all cases: binding
KIT = target: T1, KIT (Homo sapiens, UniProt P10721)
T1 construct: purchased Eurofins DiscoverX, LLC; host or cells: E. coli (BL21-derived, T7 phage) or HEK-293

PIM3 = target: T2, PIM3 (Homo sapiens, UniProt Q86V86)
T2 construct: purchased Eurofins DiscoverX, LLC; host or cells: E. coli BL21-derived host (T7 phage) or HEK-293

SRC = target: T3, SRC (Homo sapiens, UniProt P12931)
T3 construct: purchased Eurofins DiscoverX, LLC; host or cells: E. coli BL21-derived host (T7 phage) or HEK-293

ROCK2 = target: T4, ROCK2 (Homo sapiens, UniProt O75116)
T4 construct: purchased Eurofins DiscoverX, LLC; host or cells: E. coli BL21-derived host (T7 phage) or HEK-293

YANK3 = target: T5, YANK3 (Homo sapiens, UniProt Q86UX6)
T5 construct: purchased Eurofins DiscoverX, LLC; host or cells: E. coli BL21-derived host (T7 phage) or HEK-293

PLK1 = target: T6, PLK1 (Homo sapiens, UniProt P53350)
T6 construct: purchased Eurofins DiscoverX, LLC; host or cells: E. coli BL21-derived host (T7 phage) or HEK-293

LKB1 = target: T7, LKB1 (Homo sapiens, UniProt Q15831)
T7 construct: purchased Eurofins DiscoverX, LLC; host or cells: E. coli (BL21-derived, T7 phage) or HEK-293
T7 sequence (Q15831 1-433): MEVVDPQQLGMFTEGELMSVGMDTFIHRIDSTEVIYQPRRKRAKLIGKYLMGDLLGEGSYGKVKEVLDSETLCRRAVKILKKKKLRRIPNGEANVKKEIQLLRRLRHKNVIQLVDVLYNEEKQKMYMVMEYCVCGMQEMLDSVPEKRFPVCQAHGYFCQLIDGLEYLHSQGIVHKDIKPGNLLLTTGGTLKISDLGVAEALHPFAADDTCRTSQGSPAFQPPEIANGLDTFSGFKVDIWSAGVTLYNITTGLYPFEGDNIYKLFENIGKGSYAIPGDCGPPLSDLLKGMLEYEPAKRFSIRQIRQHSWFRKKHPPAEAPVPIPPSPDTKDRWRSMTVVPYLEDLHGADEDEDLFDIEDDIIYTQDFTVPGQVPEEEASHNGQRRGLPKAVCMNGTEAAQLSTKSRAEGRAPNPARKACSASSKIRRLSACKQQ

AXL = target: T8, AXL (Homo sapiens, UniProt P30530)
T8 construct: purchased Eurofins DiscoverX, LLC; host or cells: E. coli BL21-derived (T7 phage) or HEK-293
T8 sequence (P30530 26-894): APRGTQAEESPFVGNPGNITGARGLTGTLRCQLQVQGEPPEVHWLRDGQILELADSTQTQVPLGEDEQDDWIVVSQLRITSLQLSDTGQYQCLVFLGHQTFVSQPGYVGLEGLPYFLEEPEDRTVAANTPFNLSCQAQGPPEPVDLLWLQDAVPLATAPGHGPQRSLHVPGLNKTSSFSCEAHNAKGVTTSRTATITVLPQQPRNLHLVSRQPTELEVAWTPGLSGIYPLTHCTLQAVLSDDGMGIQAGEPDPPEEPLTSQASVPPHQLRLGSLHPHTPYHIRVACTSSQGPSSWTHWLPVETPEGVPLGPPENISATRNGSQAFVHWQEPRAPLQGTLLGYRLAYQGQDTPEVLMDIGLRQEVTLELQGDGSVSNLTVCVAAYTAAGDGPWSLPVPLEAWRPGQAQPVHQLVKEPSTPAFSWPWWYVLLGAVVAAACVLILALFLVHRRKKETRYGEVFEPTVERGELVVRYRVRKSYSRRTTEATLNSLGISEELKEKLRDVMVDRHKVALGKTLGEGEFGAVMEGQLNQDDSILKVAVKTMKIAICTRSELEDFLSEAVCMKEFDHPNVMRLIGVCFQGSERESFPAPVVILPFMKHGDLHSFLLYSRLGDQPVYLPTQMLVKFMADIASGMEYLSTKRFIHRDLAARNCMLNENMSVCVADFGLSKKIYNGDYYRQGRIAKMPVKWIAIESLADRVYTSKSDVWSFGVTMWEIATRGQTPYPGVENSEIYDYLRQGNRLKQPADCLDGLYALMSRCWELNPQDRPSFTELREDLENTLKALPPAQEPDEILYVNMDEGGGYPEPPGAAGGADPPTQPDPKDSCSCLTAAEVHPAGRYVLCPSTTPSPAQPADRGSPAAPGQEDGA

AURKA = target: T9, AURKA (Homo sapiens, UniProt O14965)
T9 construct: purchased Eurofins DiscoverX, LLC; host or cells: E. coli BL21-derived (T7 phage) or HEK-293
T9 sequence (O14965 1-403): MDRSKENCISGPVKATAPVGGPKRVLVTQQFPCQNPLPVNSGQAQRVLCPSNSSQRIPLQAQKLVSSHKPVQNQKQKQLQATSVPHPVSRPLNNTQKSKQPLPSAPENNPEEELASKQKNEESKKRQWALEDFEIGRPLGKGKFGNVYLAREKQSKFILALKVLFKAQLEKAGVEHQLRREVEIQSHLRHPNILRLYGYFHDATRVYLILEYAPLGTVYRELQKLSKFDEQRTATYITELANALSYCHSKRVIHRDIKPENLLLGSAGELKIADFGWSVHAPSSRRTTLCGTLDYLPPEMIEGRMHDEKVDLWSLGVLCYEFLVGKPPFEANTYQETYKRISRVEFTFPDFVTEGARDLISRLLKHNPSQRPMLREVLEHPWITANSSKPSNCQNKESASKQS

[1] = target: T10, ABL1(T315I)-phosphorylated (Homo sapiens, UniProt P00519, T315I)
T10 construct: purchased Eurofins DiscoverX, LLC; host or cells: E. coli BL21-derived (T7 phage) or HEK-293

T6 sequence (P53350 whole entry): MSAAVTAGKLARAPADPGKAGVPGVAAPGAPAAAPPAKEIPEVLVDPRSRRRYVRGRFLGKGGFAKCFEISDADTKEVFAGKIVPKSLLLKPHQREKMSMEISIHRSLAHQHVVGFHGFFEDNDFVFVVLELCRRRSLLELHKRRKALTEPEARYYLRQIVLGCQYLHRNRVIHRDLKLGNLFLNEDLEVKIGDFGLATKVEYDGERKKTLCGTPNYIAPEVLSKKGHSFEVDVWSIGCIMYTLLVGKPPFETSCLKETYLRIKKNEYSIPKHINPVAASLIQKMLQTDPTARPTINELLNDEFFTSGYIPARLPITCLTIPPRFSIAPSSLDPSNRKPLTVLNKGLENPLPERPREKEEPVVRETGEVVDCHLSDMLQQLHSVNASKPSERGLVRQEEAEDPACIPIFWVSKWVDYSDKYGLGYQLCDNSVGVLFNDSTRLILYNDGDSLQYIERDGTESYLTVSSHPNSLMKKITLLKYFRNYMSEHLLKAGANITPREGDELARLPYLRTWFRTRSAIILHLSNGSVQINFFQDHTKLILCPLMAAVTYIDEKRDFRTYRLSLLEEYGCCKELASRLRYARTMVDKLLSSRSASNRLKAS
T4 sequence (O75116 whole entry): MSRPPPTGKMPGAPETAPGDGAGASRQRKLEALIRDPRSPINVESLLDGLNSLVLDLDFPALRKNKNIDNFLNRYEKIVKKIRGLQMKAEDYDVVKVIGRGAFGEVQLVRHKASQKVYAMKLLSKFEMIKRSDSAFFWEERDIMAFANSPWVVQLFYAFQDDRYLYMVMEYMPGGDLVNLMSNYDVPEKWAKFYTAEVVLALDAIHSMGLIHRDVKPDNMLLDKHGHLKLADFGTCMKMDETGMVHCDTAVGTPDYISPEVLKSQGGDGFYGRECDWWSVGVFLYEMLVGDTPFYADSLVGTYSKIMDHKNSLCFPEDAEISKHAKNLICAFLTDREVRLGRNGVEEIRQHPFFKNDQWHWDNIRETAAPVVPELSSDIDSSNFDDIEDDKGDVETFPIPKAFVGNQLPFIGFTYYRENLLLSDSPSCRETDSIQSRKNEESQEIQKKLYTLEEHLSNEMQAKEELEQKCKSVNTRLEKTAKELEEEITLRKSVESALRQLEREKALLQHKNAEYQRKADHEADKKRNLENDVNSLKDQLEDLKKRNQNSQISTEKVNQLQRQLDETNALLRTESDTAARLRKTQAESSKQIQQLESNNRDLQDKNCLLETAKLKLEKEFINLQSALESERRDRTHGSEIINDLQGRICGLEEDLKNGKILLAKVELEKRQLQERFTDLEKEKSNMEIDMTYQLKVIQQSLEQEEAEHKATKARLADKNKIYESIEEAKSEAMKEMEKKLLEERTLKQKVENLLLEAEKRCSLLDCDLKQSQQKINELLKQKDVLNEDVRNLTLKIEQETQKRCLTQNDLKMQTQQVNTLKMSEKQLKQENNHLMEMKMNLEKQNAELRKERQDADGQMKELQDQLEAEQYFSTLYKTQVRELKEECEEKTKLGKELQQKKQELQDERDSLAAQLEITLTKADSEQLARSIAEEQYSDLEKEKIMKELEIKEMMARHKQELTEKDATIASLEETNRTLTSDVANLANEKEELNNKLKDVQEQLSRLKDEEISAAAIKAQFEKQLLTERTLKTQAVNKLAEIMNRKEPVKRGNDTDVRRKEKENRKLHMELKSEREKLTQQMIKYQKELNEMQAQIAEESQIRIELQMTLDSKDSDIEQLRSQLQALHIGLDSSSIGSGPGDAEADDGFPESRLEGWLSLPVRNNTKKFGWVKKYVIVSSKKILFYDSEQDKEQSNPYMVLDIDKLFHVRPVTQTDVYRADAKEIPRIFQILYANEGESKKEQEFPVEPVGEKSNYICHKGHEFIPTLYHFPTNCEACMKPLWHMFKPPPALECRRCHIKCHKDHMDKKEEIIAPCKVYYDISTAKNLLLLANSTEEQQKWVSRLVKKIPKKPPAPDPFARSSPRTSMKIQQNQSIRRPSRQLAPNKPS
T1 sequence (P10721 26-976): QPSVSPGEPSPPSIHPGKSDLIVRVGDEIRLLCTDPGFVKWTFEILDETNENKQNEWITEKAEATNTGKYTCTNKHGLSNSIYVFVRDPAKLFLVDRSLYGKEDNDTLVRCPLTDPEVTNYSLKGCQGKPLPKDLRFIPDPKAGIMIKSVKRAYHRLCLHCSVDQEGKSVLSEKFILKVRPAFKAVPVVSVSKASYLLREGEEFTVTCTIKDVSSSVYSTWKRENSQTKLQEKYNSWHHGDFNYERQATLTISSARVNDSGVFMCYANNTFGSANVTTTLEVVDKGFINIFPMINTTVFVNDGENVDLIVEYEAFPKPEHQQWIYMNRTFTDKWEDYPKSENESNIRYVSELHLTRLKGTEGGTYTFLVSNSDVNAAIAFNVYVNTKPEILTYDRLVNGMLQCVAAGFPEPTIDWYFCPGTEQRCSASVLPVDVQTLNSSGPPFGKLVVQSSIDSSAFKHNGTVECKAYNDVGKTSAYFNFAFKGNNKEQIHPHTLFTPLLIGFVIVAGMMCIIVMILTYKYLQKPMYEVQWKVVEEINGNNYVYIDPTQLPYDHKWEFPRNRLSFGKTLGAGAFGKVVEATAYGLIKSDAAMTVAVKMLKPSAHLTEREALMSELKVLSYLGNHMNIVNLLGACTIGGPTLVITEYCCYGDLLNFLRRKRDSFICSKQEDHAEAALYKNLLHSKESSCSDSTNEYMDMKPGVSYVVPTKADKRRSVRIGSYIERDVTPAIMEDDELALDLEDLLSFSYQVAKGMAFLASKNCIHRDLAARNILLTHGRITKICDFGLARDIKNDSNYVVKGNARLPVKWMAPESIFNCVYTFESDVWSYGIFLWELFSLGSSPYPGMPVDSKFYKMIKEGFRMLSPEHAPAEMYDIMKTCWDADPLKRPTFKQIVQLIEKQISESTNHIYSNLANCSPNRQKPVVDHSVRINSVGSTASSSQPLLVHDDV
T3 sequence (P12931 whole entry): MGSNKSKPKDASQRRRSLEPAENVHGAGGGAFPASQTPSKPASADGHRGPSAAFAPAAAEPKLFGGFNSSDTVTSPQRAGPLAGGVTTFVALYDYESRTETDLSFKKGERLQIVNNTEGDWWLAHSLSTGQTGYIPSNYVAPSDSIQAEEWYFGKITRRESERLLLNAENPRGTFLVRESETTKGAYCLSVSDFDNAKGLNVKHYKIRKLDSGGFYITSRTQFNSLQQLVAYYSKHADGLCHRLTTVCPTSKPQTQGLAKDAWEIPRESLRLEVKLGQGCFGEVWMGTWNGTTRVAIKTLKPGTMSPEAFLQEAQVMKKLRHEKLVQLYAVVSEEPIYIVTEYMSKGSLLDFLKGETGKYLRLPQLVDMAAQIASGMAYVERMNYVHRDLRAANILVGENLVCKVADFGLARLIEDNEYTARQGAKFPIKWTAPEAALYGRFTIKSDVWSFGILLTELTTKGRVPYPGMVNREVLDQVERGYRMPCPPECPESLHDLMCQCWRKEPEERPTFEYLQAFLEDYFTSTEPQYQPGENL
T5 sequence (Q86UX6 whole entry): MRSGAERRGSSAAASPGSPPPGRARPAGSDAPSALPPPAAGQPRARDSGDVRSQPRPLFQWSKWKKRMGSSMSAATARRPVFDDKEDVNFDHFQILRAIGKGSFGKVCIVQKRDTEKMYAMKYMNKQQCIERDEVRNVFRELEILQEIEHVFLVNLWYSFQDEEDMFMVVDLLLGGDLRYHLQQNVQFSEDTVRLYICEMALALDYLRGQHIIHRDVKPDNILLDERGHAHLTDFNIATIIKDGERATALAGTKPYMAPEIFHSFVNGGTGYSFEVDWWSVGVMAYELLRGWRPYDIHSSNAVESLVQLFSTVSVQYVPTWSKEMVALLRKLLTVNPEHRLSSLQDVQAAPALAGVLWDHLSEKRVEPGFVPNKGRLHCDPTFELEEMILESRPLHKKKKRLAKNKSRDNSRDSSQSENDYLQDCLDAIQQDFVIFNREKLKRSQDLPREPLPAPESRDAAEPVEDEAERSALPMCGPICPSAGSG

## CC(C)Cn1ncc2cc(Cc3ccc(F)cc3F)c(C(=O)NCCN(C)C)cc21 [Compound 94, 5-(2,4-Difluorobenzyl)-N-(2-(dimethylamino)ethyl)-1-isobutyl-1H-indazole-6-carboxamide]
KIT
  RA @ 1000nM: 100%
  RA @ 10000nM: 100%
PIM3
  RA @ 1000nM: 100%
  RA @ 10000nM: 100%
SRC
  RA @ 1000nM: 100%
  RA @ 10000nM: 94%
ROCK2
  RA @ 1000nM: 87%
  RA @ 10000nM: 96%
YANK3
  RA @ 1000nM: 100%
  RA @ 10000nM: 100%
PLK1
  RA @ 1000nM: 100%
  RA @ 10000nM: 100%
LKB1
  RA @ 1000nM: 100%
  RA @ 10000nM: 96%
AXL
  RA @ 1000nM: 97%
  RA @ 10000nM: 89%
AURKA
  RA @ 1000nM: 96%
  RA @ 10000nM: 93%
[1]
  RA @ 1000nM: 93%
  RA @ 10000nM: 90%

## CN(C)CCNC(=O)c1cc2c(cnn2CC2CCCCC2)cc1Cc1ccc(F)cc1F [Compound 95, 1-(Cyclohexylmethyl)-5-(2,4-difluorobenzyl)-N-(2-(dimethylamino)ethyl)-1H-indazole-6-carboxamide]
KIT
  RA @ 1000nM: 100%
  RA @ 10000nM: 100%
PIM3
  RA @ 1000nM: 100%
  RA @ 10000nM: 100%
SRC
  RA @ 1000nM: 100%
  RA @ 10000nM: 93%
ROCK2
  RA @ 1000nM: 83%
  RA @ 10000nM: 100%
YANK3
  RA @ 1000nM: 100%
  RA @ 10000nM: 100%
PLK1
  RA @ 1000nM: 100%
  RA @ 10000nM: 100%
LKB1
  RA @ 1000nM: 100%
  RA @ 10000nM: 86%
AXL
  RA @ 1000nM: 84%
  RA @ 10000nM: 83%
AURKA
  RA @ 1000nM: 95%
  RA @ 10000nM: 93%
[1]
  RA @ 1000nM: 72%
  RA @ 10000nM: 91%

Source: PMC12406203 (Journal of Medicinal Chemistry, 2025)
